The results in this text go back to patent US20260285857A1, “BICYCLIC AND HETEROCYCLIC AMIDE COMPOUNDS” (priority 2024, published 2026).

The structures appear in SMILES notation.

The test system of the first assay is immunoglobulin light chain protein WIL-FL T46L. Description: Differential scanning fluorimetry (thermal shift) assay. Format: binding. The note with it: Table A; temperature shift [Tm]compound-[Tm]vehicle; recombinant WIL-FL T46L.
For `Cc1cc(N2CC[C@](C)(c3ccccc3)C2)cn2nc(C(=O)N3CC4(O)CC3C4)nc12` [Compound 146], the DSF entry is reported as “***** (>2.5° C.=*****)”.

Consider `Cc1cc(N2CCC(C)(c3ccccn3)C2)cn2nc(C(=O)NC3CCN(c4cccc(C(=O)O)n4)CC3)nc12` (stereo not shown) [Compound 34, 6-[4-[[8-methyl-6-[3-methyl-3-(2-pyridyl)pyrrolidin-1-yl]-[1,2,4]triazolo[1,5-a]pyridine-2-carbonyl]amino]-1-piperidyl]pyridine-2-carboxylic acid], for which the DSF result is reported as “**** (>1.5-2.5° C.=****)”.

Consider `Cc1cc(N2CC[C@](C)(c3ccccc3)C2)cn2nc(C(=O)NC34CCC(C(C)(C)O)(C3)C4)nc12` [Compound 208], for which the DSF entry is given as “***** (>2.5° C.=*****)”.

As to `Cc1cc(N2CC[C@](C)(c3ccccc3)C2)cn2nc(C(=O)NC3CC4(COC4)C3)nc12` [Compound 18, (R)-8-methyl-6-(3-methyl-3-phenylpyrrolidin-1-yl)-N-(2-oxaspiro[3.3]heptan-6-yl)-[1,2,4]triazolo[1,5-a]pyridine-2-carboxamide], the DSF result is recorded as “***** (>2.5° C.=*****)”.

With `Cc1cc(N2CC[C@](C)(c3ccccc3)C2)cn2nc(C(=O)NC3CCN(c4cccc(C(=O)O)n4)CC34COC4)nc12` (stereo partly drawn) [Compound 20, 6-(9-(8-methyl-6-((R)-3-methyl-3-phenylpyrrolidin-1-yl)-[1,2,4]triazolo[1,5-a]pyridine-2-carboxamido)-2-oxa-6-azaspiro[3.5]nonan-6-yl)picolinic acid], the DSF entry is reported as “***** (>2.5° C.=*****)”.

`Cc1cc(N2CC[C@](C)(c3ccccc3)C2)cn2nc(S(=O)(=O)NCC(C)(C)O)nc12` [Compound 323]: the DSF entry is “***** (>2.5° C.=*****)”.

For `Cc1cc(N2CC[C@](C)(c3ccccc3)C2)cn2nc(C(=O)NC3CC4(C3)CC(N3CCCC(C(=O)O)C3)C4)nc12` (stereo partly shown) [Compound 380], the DSF result was “***** (>2.5° C.=*****)”.

On to `Cc1cc(N2CC[C@](C)(c3ccccc3)C2)cn2nc(C(=O)N[C@H]3CC[C@H](c4ccc(C(=O)O)c(F)c4)CC3)nc12` [Compound 225], for which the DSF result is listed as “***** (>2.5° C.=*****)”.

As for `CNC(=O)C1C2COC1(c1nc3c(C)cc(N4CC[C@](C)(c5ccccc5)C4)cn3n1)C2` (stereo partly shown) [Example 72], the DSF result is “***** (>2.5° C.=*****)”.

With `CNC(=O)c1nc2c(C)cc(N3CC[C@@](c4ccccc4)(C(F)F)C3)cn2n1` [Compound 329], the DSF entry is reported as “***** (>2.5° C.=*****)”.

On to `Cc1cc(N2CC[C@](C)(c3ccccc3)C2)cn2nc(S(=O)(=O)NC3CCNC3)nc12` (stereo partly shown) [Compound 326], for which the DSF entry is “***** (>2.5° C.=*****)”.

Turning to `COC(=O)CC1CCN(C(=O)c2nc3c(C)cc(N4CC[C@](C)(c5ccccc5)C4)cn3n2)C1` (stereo partly shown) [Compound 143], the DSF result is given as “***** (>2.5° C.=*****)”.

In the case of `CCC(=O)N1CC(O)C(NC(=O)c2nc3c(C)cc(N4CC[C@](C)(c5ccccc5)C4)cn3n2)C1` (stereo partly shown) [Compound 108], the DSF result is reported as “***** (>2.5° C.=*****)”.

As to `Cc1cc(N2CC[C@](C)(c3ccccc3)C2)cn2nc(C(=O)NCC(C)(C)O)nc12` [Compound 100], the DSF result is listed as “***** (>2.5° C.=*****)”.

Consider `CCC1(c2ccccc2)CN(c2cc(C)c3nc(C(=O)NC4CCN(c5cccc(C(=O)O)n5)CC4)nn3c2)C1` [Compound 390], for which the DSF result is “***** (>2.5° C.=*****)”.

For `CCC1(c2ccc(C)cc2)CN(c2cc(C)c3nc(C(=O)N4C[C@@H]5CN(c6cccc(C(=O)O)n6)C[C@@H]5C4)nn3c2)C1` [Compound 396], the DSF entry was “***** (>2.5° C.=*****)”.

`Cc1nc(CC2C3COC2(c2nc4c(C)cc(N5CC[C@](C)(c6ccccc6)C5)cn4n2)C3)n[nH]1` (stereo partly drawn) [Compound 9, 8-methyl-6-[(3R)-3-methyl-3-phenyl-pyrrolidin-1-yl]-2-[5-[(5-methyl-1H-1,2,4-triazol-3-yl)methyl]-2-oxabicyclo[2.1.1]hexan-1-yl]-[1,2,4]triazolo[1,5-a]pyridine]: the DSF entry is “***** (>2.5° C.=*****)”.

The same assay, now with this note: Table B; temperature shift [Tm]compound-[Tm]vehicle; recombinant WIL-FL T46L.
`Cc1cc(N2CC[C@](C)(c3ccccc3)C2)cn2nc(C(=O)NC3CC4(C3)CC(N3CC(C(=O)O)C3)C4)nc12` (stereo partly shown) [Compound 600]: the DSF entry was “***** (>2.5° C.=*****)”.

As to `CCC(=O)NC12CC(C)(C1)OC2c1nc2c(C)cc(N3CC[C@](C)(c4ccccc4)C3)cn2n1` (stereo partly drawn) [Compound 475, N-[1-methyl-3-[8-methyl-6-[(3R)-3-methyl-3-phenyl-pyrrolidin-1-yl]-[1,2,4]triazolo[1,5-a]pyridin-2-yl]-2-oxabicyclo[2.1.1]hexan-4-yl]propanamide], the DSF result is given as “***** (>2.5° C.=*****)”.

As for `Cc1cc(N2CC[C@](C)(c3ccccc3)C2)cn2nc(C(=O)N3CCC4(CCN(c5nc(C(=O)O)ccc5C#N)C4)C3)nc12` (stereo partly shown) [Compound 724], the DSF result was “***** (>2.5° C.=*****)”.

Turning to `Cc1n[nH]c([C@@H]2[C@@H]3CO[C@@]2(c2nc4c(C)cc(N5CC[C@](C)(c6ccccc6)C5)cn4n2)C3)n1` [Compound 492, 8-methyl-6-[(3R)-3-methyl-3-phenyl-pyrrolidin-1-yl]-2-[(1S,4R,5S)-5-(3-methyl-1H-1,2,4-triazol-5-yl)-2-oxabicyclo[2.1.1]hexan-1-yl]-[1,2,4]triazolo[1,5-a]pyridine], the DSF entry is on record as “***** (>2.5° C.=*****)”.

Regarding `Cc1cc(N2CC[C@](C)(c3ccccc3)C2)cn2nc(C(=O)N3CCC4(CCC(C5CCC(C(=O)O)CC5)C4)C3)nc12` (stereo partly drawn) [Compound 674, 4-(2-(8-methyl-6-((R)-3-methyl-3-phenylpyrrolidin-1-yl)-[1,2,4]triazolo[1,5-a]pyridine-2-carbonyl)-2-azaspiro[4.4]nonan-7-yl)cyclohexane-1-carboxylic acid], the DSF entry was “***** (>2.5° C.=*****)”.

Consider `Cc1cc(N2CC[C@](C)(c3ccccc3)C2)cn2nc(C(=O)N3CC4CCC3C(=O)N4c3cccc(C(=O)O)n3)nc12` (stereo partly drawn) [Compound 695, 6-[5-[8-methyl-6-[(3R)-3-methyl-3-phenyl-pyrrolidin-1-yl]-[1,2,4]triazolo[1,5-a]pyridine-2-carbonyl]-3-oxo-2,5-diazabicyclo[2.2.2]octan-2-yl]pyridine-2-carboxylic acid], for which the DSF entry is recorded as “***** (>2.5° C.=*****)”.

Turning to `Cc1cc(N2CC[C@](C)(c3ccccc3)C2)cn2nc(C(=O)NC3CC4CCC3N4c3cccc(C(=O)O)n3)nc12` (stereo partly shown) [Compound 668], the DSF result is listed as “***** (>2.5° C.=*****)”.

For the compound `Cc1n[nH]c(C23CC(NC(=O)c4nc5c(C)cc(N6CC[C@](C)(c7ccccc7)C6)cn5n4)(CO2)C3)n1` [Compound 591, (R)-8-methyl-N-(1-(3-methyl-1H-1,2,4-triazol-5-yl)-2-oxabicyclo[2.1.1]hexan-4-yl)-6-(3-methyl-3-phenylpyrrolidin-1-yl)-[1,2,4]triazolo[1,5-a]pyridine-2-carboxamide], the DSF entry was “***** (>2.5° C.=*****)”.

Take `Cc1cc(N2CC[C@](C)(c3ccccc3)C2)cn2nc(C(=O)N3CC4CC(C(=O)O)CC4C3)nc12` (stereo partly shown) [Compound 592]: the DSF result is given as “***** (>2.5° C.=*****)”.

`Cc1cc(N2CC[C@](C)(c3ccccc3)C2)cn2nc(C34CC(CO3)C4N3CCOCC3)nc12` (stereo partly drawn) [Compound 527, 4-(1-(8-methyl-6-((R)-3-methyl-3-phenylpyrrolidin-1-yl)-[1,2,4]triazolo[1,5-a]pyridin-2-yl)-2-oxabicyclo[2.1.1]hexan-5-yl)morpholine]: the DSF entry is reported as “***** (>2.5° C.=*****)”.

For the compound `Cc1ccn(C2(C)CCN(c3cc(C)c4nc(C(=O)N5CC[C@@]6(CCN(c7cccc(C(=O)O)n7)C6)C5)nn4c3)C2)n1` (stereo partly shown) [Compound 745], the DSF result is given as “*** (>1-1.5° C.=***)”.
